pIC50: −log10 of the molar value.
What was measured:
[1] = target: T1, Human immunodeficiency virus type 1 protease (Human immunodeficiency virus 1, UniProt Q72874); experiment: Inhibitory activity against HIV protease
[2] = target: T1, Human immunodeficiency virus type 1 protease; experiment: Inhibitory activity against HIV protease at pH 4.7
[3] = target: T1, Human immunodeficiency virus type 1 protease; experiment: Inhibitory activity against HIV protease at pH 6.2

Structure (SMILES)	pIC50 [1]	pIC50 [2]	pIC50 [3]
NC(=O)CCCC1(c2ccccc2)CC(=O)C(SCCc2ccccc2)=C(O)O1 (stereo not drawn)	5.89	–	–
CC(C)c1ccc(C(C)C)c(SC2=C(O)OC(CCc3ccccc3)(c3ccccc3)CC2=O)c1 (stereo not drawn)	7.85	–	–
CC(C)CC1(c2ccccc2)CC(=O)C(SCCc2ccccc2)=C(O)O1 (stereo not drawn)	5.92	–	–
CCC(C)c1ccccc1SC1=C(O)OC(CCc2ccccc2)(c2ccccc2)CC1=O (stereo not drawn)	8.00	–	–
CC(C)CC1(c2ccccc2)CC(=O)C(SCc2ccccc2)=C(O)O1 (stereo not drawn)	6.36	–	–
O=C1CC(CCc2ccccc2)(c2ccccc2)OC(O)=C1Sc1ccccc1C1CCCCC1 (stereo not drawn)	7.49	–	–
Cc1ccc(C(C)C)c(SC2=C(O)OC(CCc3ccccc3)(c3ccccc3)CC2=O)c1 (stereo not drawn)	–	8.15	7.10
Cc1ccc(C(C)C)c(SC2=C(O)OC(c3ccccc3)(c3ccccc3)CC2=O)c1	7.42	–	–
CC(C)c1ccc(C(C)(C)C)c(SC2=C(O)OC(CCc3ccccc3)(c3ccccc3)CC2=O)c1 (stereo not drawn)	7.33	–	–
CCCCC1(c2ccccc2)CC(=O)C(SCCc2ccccc2)=C(O)O1 (stereo not drawn)	6.40	–	–
O=C1CC2(CCCc3ccccc32)OC(O)=C1SCCc1ccccc1 (stereo not drawn)	5.89	–	–
CC(C)CCCC1(c2ccccc2)CC(=O)C(SCc2ccccc2)=C(O)O1 (stereo not drawn)	6.74	–	–
CN(CC1(c2ccccc2)CC(=O)C(SCCc2ccccc2)=C(O)O1)c1ccccc1 (stereo not drawn)	5.64	–	–
O=C1CC(CC2CCCC2)(c2ccccc2)OC(O)=C1SCc1ccccc1 (stereo not drawn)	7.06	–	–
CC(C)CCC1(c2ccccc2)CC(=O)C(SCCc2ccccc2)=C(O)O1 (stereo not drawn)	7.02	–	–
CCCCC1(c2ccccc2)CC(=O)C(SCc2ccccc2)=C(O)O1 (stereo not drawn)	6.57	–	–
CC(C)c1ccc(C(C)C)c(SC2=C(O)OC(c3ccccc3)(c3ccccc3)CC2=O)c1	6.92	–	–
CC(C)(C)c1ccccc1SC1=C(O)OC(CCc2ccccc2)(c2ccccc2)CC1=O (stereo not drawn)	–	8.52	6.98
O=C1CC(COc2ccccc2)(c2ccccc2)OC(O)=C1SCc1ccccc1 (stereo not drawn)	6.76	–	–
O=C1CC(c2ccccc2)(c2ccccc2)OC(O)=C1SCCc1ccccc1	6.82	–	–
CC(C)c1ccccc1SC1=C(O)OC(CCc2ccccc2)(c2ccccc2)CC1=O (stereo not drawn)	–	7.85	7.01

Structure (SMILES)	pIC50 [1]	pIC50 [2]	pIC50 [3]
CC(C)CCC1(c2ccccc2)CC(=O)C(SCc2ccccc2)=C(O)O1 (stereo not drawn)	7.01	–	–
CC(C)c1ccccc1SC1=C(O)OC(c2ccccc2)(c2ccccc2)CC1=O	7.64	–	–
O=C1CC(c2ccccc2)OC(O)=C1SCc1ccccc1 (stereo not drawn)	5.05	–	–
O=C(O)CCCCC1(c2ccccc2)CC(=O)C(SCCc2ccccc2)=C(O)O1 (stereo not drawn)	8.30	–	–
CCC(C)c1ccccc1SC1=C(O)OC(c2ccccc2)(c2ccccc2)CC1=O (stereo not drawn)	7.77	–	–
CCCCCCC1(c2ccccc2)CC(=O)C(SCc2ccccc2)=C(O)O1 (stereo not drawn)	6.74	–	–
NC(=O)CCCCC1(c2ccccc2)CC(=O)C(SCCc2ccccc2)=C(O)O1 (stereo not drawn)	6.47	–	–
CCCC1(c2ccccc2)CC(=O)C(SCCc2ccccc2)=C(O)O1 (stereo not drawn)	5.29	–	–
O=C1CC2(CCc3ccccc32)OC(O)=C1SCc1ccccc1 (stereo not drawn)	4.93	–	–
O=C1CC(c2ccccc2)(c2ccccc2)OC(O)=C1SCc1ccccc1	6.58	–	–
Cc1ccc(C(C)C)c(Sc2c(O)cc(-c3ccccc3)oc2=O)c1	–	7.77	–
O=C1CC(CC2CCCCC2)(c2ccccc2)OC(O)=C1SCc1ccccc1 (stereo not drawn)	6.86	–	–
O=C(O)CCCC1(c2ccccc2)CC(=O)C(SCCc2ccccc2)=C(O)O1 (stereo not drawn)	6.57	–	–
CCCCCCC1(c2ccccc2)CC(=O)C(SCCc2ccccc2)=C(O)O1 (stereo not drawn)	6.95	–	–
Cc1ccc(C(C)C)c(SC2=C(O)O[C@@](CCc3ccccc3)(c3ccccc3)CC2=O)c1	6.89	–	–
Cc1ccc(C(C)C)c(SC2=C(O)O[C@](CCc3ccccc3)(c3ccccc3)CC2=O)c1	8.22	–	–
CC(C)(C)c1ccccc1Sc1c(O)cc(-c2ccccc2)oc1=O	–	7.77	–
O=c1cc(-c2ccccc2)oc(O)c1Sc1ccccc1	5.51	–	–
Cc1ccc(C(C)(C)C)c(SC2=C(O)OC(c3ccccc3)(c3ccccc3)CC2=O)c1	7.92	–	–
O=C1CC(c2ccccc2)OC(O)=C1SCCc1ccccc1 (stereo not drawn)	5.68	–	–
O=C1CC(CC2CCCC2)(c2ccccc2)OC(O)=C1SCCc1ccccc1 (stereo not drawn)	6.29	–	–

Structure (SMILES)	pIC50 [1]	pIC50 [2]	pIC50 [3]
O=C1CC2(CCCc3ccccc32)OC(O)=C1SCc1ccccc1 (stereo not drawn)	5.64	–	–
CCCC1(c2ccccc2)CC(=O)C(SCc2ccccc2)=C(O)O1 (stereo not drawn)	6.54	–	–
Cc1ccccc1SC1=C(O)OC(c2ccccc2)(c2ccccc2)CC1=O	6.41	–	–
O=C1CC(c2ccccc2)(c2ccccc2)OC(O)=C1Sc1ccccc1C1CCCCC1	6.90	–	–
O=C1CC(CCc2ccccc2)(c2ccccc2)OC(O)=C1Sc1ccccc1 (stereo not drawn)	6.89	–	–
Cc1ccccc1SC1=C(O)OC(CCc2ccccc2)(c2ccccc2)CC1=O (stereo not drawn)	7.14	–	–
O=C(O)CCC1(c2ccccc2)CC(=O)C(SCCc2ccccc2)=C(O)O1 (stereo not drawn)	5.92	–	–
O=C1CC(CCCCO)(c2ccccc2)OC(O)=C1SCc1ccccc1 (stereo not drawn)	5.90	–	–
Cc1ccc(C(C)(C)C)c(Sc2c(O)cc(-c3ccccc3)oc2=O)c1	–	7.55	6.55
O=C1CC(CCc2ccccc2)(c2ccccc2)OC(O)=C1SCCc1ccccc1 (stereo not drawn)	7.29	–	–
CCCCCC1(c2ccccc2)CC(=O)C(SCCc2ccccc2)=C(O)O1 (stereo not drawn)	7.08	–	–
O=C1CC(c2ccccc2)(c2ccccc2)OC(O)=C1Sc1ccccc1	6.96	–	–
O=C1CC(c2ccccc2)(c2ccccc2)OC(O)=C1Sc1ccccc1C1CCCC1	7.85	–	–
CC(C)(C)c1ccccc1SC1=C(O)OC(c2ccccc2)(c2ccccc2)CC1=O	7.31	–	–
Cc1ccc(C(C)(C)C)c(SC2=C(O)OC(CCc3ccccc3)(c3ccccc3)CC2=O)c1 (stereo not drawn)	–	8.00	7.46
CC(C)CCCC1(c2ccccc2)CC(=O)C(SCCc2ccccc2)=C(O)O1 (stereo not drawn)	6.81	–	–
O=C1CC(c2ccccc2)(c2ccncc2)OC(O)=C1SCCc1ccccc1 (stereo not drawn)	6.10	–	–
O=C1CC(CCc2ccccc2)(c2ccccc2)OC(O)=C1SCc1ccccc1 (stereo not drawn)	7.22	–	–
CC(C)CCC1(c2ccccc2)CC(=O)C(Sc2ccccc2)=C(O)O1 (stereo not drawn)	5.85	–	–
CCCCCC1(c2ccccc2)CC(=O)C(SCc2ccccc2)=C(O)O1 (stereo in doubt; 4b)	6.91	–	–
CCCCCC1(c2ccccc2)CC(=O)C(SCc2ccccc2)=C(O)O1 (stereo in doubt; 15b)	6.49	–	–
